{"source": "ChEMBL document CHEMBL3526069", "about": "“Human pharmacokinetic prediction of UDP-glucuronosyltransferase substrates with an animal scale-up approach” (Drug Metab Dispos, 2011)", "data": [{"test_system": "not listed separately", "experiment": "Plasma clearance in human", "conditions": "plasma", "units": {"clearance": "mL/min/kg"}, "values": [{"smiles": "C[C@H]1COc2c(N3CCN(C)CC3)c(F)cc3c(=O)c(C(=O)O)cn1c23.Cl", "note": "[LEVOFLOXACIN HYDROCHLORIDE]", "clearance": 1.9}, {"smiles": "O=C1Nc2ccc(Cl)cc2C(c2ccccc2Cl)=NC1O", "note": "(stereo not given) [LORAZEPAM]", "clearance": 1.21}, {"smiles": "COc1c(C)c2c(c(O)c1C/C=C(\\C)CCC(=O)O)C(=O)OC2", "note": "[MYCOPHENOLIC ACID]", "clearance": 3.31}]}, {"test_system": "not listed separately", "experiment": "Plasma clearance in po dosed human", "conditions": "plasma", "units": {"CL/F": "mL/min/kg"}, "values": [{"smiles": "C[C@H]1COc2c(N3CCN(C)CC3)c(F)cc3c(=O)c(C(=O)O)cn1c23.Cl", "note": "[LEVOFLOXACIN HYDROCHLORIDE]", "CL/F": 1.9}, {"smiles": "O=C1Nc2ccc(Cl)cc2C(c2ccccc2Cl)=NC1O", "note": "(stereo not given) [LORAZEPAM]", "CL/F": 1.21}, {"smiles": "COc1c(C)c2c(c(O)c1C/C=C(\\C)CCC(=O)O)C(=O)OC2", "note": "[MYCOPHENOLIC ACID]", "CL/F": 3.54}]}, {"test_system": "not listed separately", "experiment": "Drug metabolism in bile duct-cannulated rat assessed as glucuronide concentration in bile and urine at 0.2 mg/kg, iv up to 24 hrs by LC/MS/MS analysis", "assay_type": "ADME, organism-based", "design": "dose 0.2 mg/kg, route intravenous", "conditions": "in vivo", "values": [{"smiles": "C[C@H]1COc2c(N3CCN(C)CC3)c(F)cc3c(=O)c(C(=O)O)cn1c23.Cl", "note": "[LEVOFLOXACIN HYDROCHLORIDE]", "Fm": 0.644}, {"smiles": "O=C1Nc2ccc(Cl)cc2C(c2ccccc2Cl)=NC1O", "note": "(stereo not given) [LORAZEPAM]", "Fm": 0.085}, {"smiles": "COc1c(C)c2c(c(O)c1C/C=C(\\C)CCC(=O)O)C(=O)OC2", "note": "[MYCOPHENOLIC ACID]", "Fm": 0.096}]}, {"test_system": "not listed separately", "experiment": "Drug metabolism in gallbladder-cannulated mouse assessed as glucuronide concentration in bile and urine at 0.2 mg/kg, iv up to 24 hrs by LC/MS/MS analysis", "assay_type": "ADME, organism-based", "design": "dose 0.2 mg/kg, route intravenous", "conditions": "in vivo", "values": [{"smiles": "C[C@H]1COc2c(N3CCN(C)CC3)c(F)cc3c(=O)c(C(=O)O)cn1c23.Cl", "note": "[LEVOFLOXACIN HYDROCHLORIDE]", "Fm": 0.229}, {"smiles": "O=C1Nc2ccc(Cl)cc2C(c2ccccc2Cl)=NC1O", "note": "(stereo not given) [LORAZEPAM]", "Fm": 0.436}, {"smiles": "COc1c(C)c2c(c(O)c1C/C=C(\\C)CCC(=O)O)C(=O)OC2", "note": "[MYCOPHENOLIC ACID]", "Fm": 0.966}]}, {"test_system": "not listed separately", "experiment": "Drug metabolism in bile duct-cannulated dog assessed as glucuronide concentration in bile and urine at 0.2 mg/kg, iv up to 24 hrs by LC/MS/MS analysis", "assay_type": "ADME, organism-based, Canis lupus familiaris", "design": "dose 0.2 mg/kg, route intravenous", "conditions": "in vivo", "values": [{"smiles": "C[C@H]1COc2c(N3CCN(C)CC3)c(F)cc3c(=O)c(C(=O)O)cn1c23.Cl", "note": "[LEVOFLOXACIN HYDROCHLORIDE]", "Fm": 0.061}, {"smiles": "O=C1Nc2ccc(Cl)cc2C(c2ccccc2Cl)=NC1O", "note": "(stereo not given) [LORAZEPAM]", "Fm": 0.785}, {"smiles": "COc1c(C)c2c(c(O)c1C/C=C(\\C)CCC(=O)O)C(=O)OC2", "note": "[MYCOPHENOLIC ACID]", "Fm": 0.99}]}, {"test_system": "Plasma", "experiment": "not given", "conditions": "human", "values": [{"smiles": "COc1c(C)c2c(c(O)c1C/C=C(\\C)CCC(=O)O)C(=O)OC2", "note": "[MYCOPHENOLIC ACID]", "Fu": 0.003}]}, {"test_system": "not listed separately", "experiment": "in vitro", "conditions": "mouse, plasma", "description": "Fraction unbound in mouse plasma by ultracentrifugation method", "values": [{"smiles": "O=C1Nc2ccc(Cl)cc2C(c2ccccc2Cl)=NC1O", "note": "(stereo not given) [LORAZEPAM]", "fraction unbound": 0.158}, {"smiles": "COc1c(C)c2c(c(O)c1C/C=C(\\C)CCC(=O)O)C(=O)OC2", "note": "[MYCOPHENOLIC ACID]", "fraction unbound": 0.028}]}, {"test_system": "not listed separately", "experiment": "in vitro", "conditions": "rat, plasma", "description": "Fraction unbound in rat plasma by ultracentrifugation method", "values": [{"smiles": "C[C@H]1COc2c(N3CCN(C)CC3)c(F)cc3c(=O)c(C(=O)O)cn1c23.Cl", "note": "[LEVOFLOXACIN HYDROCHLORIDE]", "fraction unbound": 0.826}, {"smiles": "O=C1Nc2ccc(Cl)cc2C(c2ccccc2Cl)=NC1O", "note": "(stereo not given) [LORAZEPAM]", "fraction unbound": 0.09}, {"smiles": "COc1c(C)c2c(c(O)c1C/C=C(\\C)CCC(=O)O)C(=O)OC2", "note": "[MYCOPHENOLIC ACID]", "fraction unbound": 0.004}]}, {"test_system": "not listed separately", "experiment": "in vitro", "conditions": "rhesus monkey, plasma", "description": "Fraction unbound in monkey plasma by ultracentrifugation method", "values": [{"smiles": "C[C@H]1COc2c(N3CCN(C)CC3)c(F)cc3c(=O)c(C(=O)O)cn1c23.Cl", "note": "[LEVOFLOXACIN HYDROCHLORIDE]", "fraction unbound": 0.871}, {"smiles": "O=C1Nc2ccc(Cl)cc2C(c2ccccc2Cl)=NC1O", "note": "(stereo not given) [LORAZEPAM]", "fraction unbound": 0.103}, {"smiles": "COc1c(C)c2c(c(O)c1C/C=C(\\C)CCC(=O)O)C(=O)OC2", "note": "[MYCOPHENOLIC ACID]", "fraction unbound": 0.011}]}, {"test_system": "not listed separately", "experiment": "in vitro", "conditions": "dog, plasma", "description": "Fraction unbound in dog plasma by ultracentrifugation method", "values": [{"smiles": "C[C@H]1COc2c(N3CCN(C)CC3)c(F)cc3c(=O)c(C(=O)O)cn1c23.Cl", "note": "[LEVOFLOXACIN HYDROCHLORIDE]", "fraction unbound": 0.922}, {"smiles": "O=C1Nc2ccc(Cl)cc2C(c2ccccc2Cl)=NC1O", "note": "(stereo not given) [LORAZEPAM]", "fraction unbound": 0.073}, {"smiles": "COc1c(C)c2c(c(O)c1C/C=C(\\C)CCC(=O)O)C(=O)OC2", "note": "[MYCOPHENOLIC ACID]", "fraction unbound": 0.003}]}, {"test_system": "not listed separately", "experiment": "in vitro", "conditions": "human, plasma", "description": "Fraction unbound in human plasma by ultracentrifugation method", "values": [{"smiles": "C[C@H]1COc2c(N3CCN(C)CC3)c(F)cc3c(=O)c(C(=O)O)cn1c23.Cl", "note": "[LEVOFLOXACIN HYDROCHLORIDE]", "fraction unbound": 0.784}, {"smiles": "O=C1Nc2ccc(Cl)cc2C(c2ccccc2Cl)=NC1O", "note": "(stereo not given) [LORAZEPAM]", "fraction unbound": 0.057}]}, {"test_system": "not listed separately", "experiment": "in vitro", "conditions": "mouse", "description": "Ratio of drug level in blood to plasma in mouse", "values": [{"smiles": "O=C1Nc2ccc(Cl)cc2C(c2ccccc2Cl)=NC1O", "note": "(stereo not given) [LORAZEPAM]", "blood plasma ratio": 0.92}, {"smiles": "COc1c(C)c2c(c(O)c1C/C=C(\\C)CCC(=O)O)C(=O)OC2", "note": "[MYCOPHENOLIC ACID]", "blood plasma ratio": 0.81}]}, {"test_system": "not listed separately", "experiment": "in vitro", "conditions": "rat", "description": "Ratio of drug level in blood to plasma in rat", "values": [{"smiles": "O=C1Nc2ccc(Cl)cc2C(c2ccccc2Cl)=NC1O", "note": "(stereo not given) [LORAZEPAM]", "blood plasma ratio": 1.09}, {"smiles": "COc1c(C)c2c(c(O)c1C/C=C(\\C)CCC(=O)O)C(=O)OC2", "note": "[MYCOPHENOLIC ACID]", "blood plasma ratio": 0.94}]}, {"test_system": "not listed separately", "experiment": "in vitro", "conditions": "rhesus monkey", "description": "Ratio of drug level in blood to plasma in monkey", "values": [{"smiles": "O=C1Nc2ccc(Cl)cc2C(c2ccccc2Cl)=NC1O", "note": "(stereo not given) [LORAZEPAM]", "blood plasma ratio": 0.87}, {"smiles": "COc1c(C)c2c(c(O)c1C/C=C(\\C)CCC(=O)O)C(=O)OC2", "note": "[MYCOPHENOLIC ACID]", "blood plasma ratio": 0.97}]}, {"test_system": "not listed separately", "experiment": "in vitro", "conditions": "dog", "description": "Ratio of drug level in blood to plasma in dog", "values": [{"smiles": "O=C1Nc2ccc(Cl)cc2C(c2ccccc2Cl)=NC1O", "note": "(stereo not given) [LORAZEPAM]", "blood plasma ratio": 0.77}, {"smiles": "COc1c(C)c2c(c(O)c1C/C=C(\\C)CCC(=O)O)C(=O)OC2", "note": "[MYCOPHENOLIC ACID]", "blood plasma ratio": 0.75}]}, {"test_system": "not listed separately", "experiment": "in vitro", "conditions": "human", "description": "Ratio of drug level in blood to plasma in human", "values": [{"smiles": "O=C1Nc2ccc(Cl)cc2C(c2ccccc2Cl)=NC1O", "note": "(stereo not given) [LORAZEPAM]", "blood plasma ratio": 1.14}, {"smiles": "COc1c(C)c2c(c(O)c1C/C=C(\\C)CCC(=O)O)C(=O)OC2", "note": "[MYCOPHENOLIC ACID]", "blood plasma ratio": 0.69}]}, {"test_system": "not listed separately", "experiment": "clinical", "conditions": "human, in vivo", "units": {"Vd": "L/kg"}, "description": "Volume of distribution at steady state in human", "values": [{"smiles": "C[C@H]1COc2c(N3CCN(C)CC3)c(F)cc3c(=O)c(C(=O)O)cn1c23.Cl", "note": "[LEVOFLOXACIN HYDROCHLORIDE]", "Vd": 1.2}, {"smiles": "COc1c(C)c2c(c(O)c1C/C=C(\\C)CCC(=O)O)C(=O)OC2", "note": "[MYCOPHENOLIC ACID]", "Vd": 4.75}]}, {"test_system": "not listed separately", "experiment": "clinical", "conditions": "human, in vivo", "remark": "another data set of the same source", "units": {"half-life": "h"}, "values": [{"smiles": "C[C@H]1COc2c(N3CCN(C)CC3)c(F)cc3c(=O)c(C(=O)O)cn1c23.Cl", "note": "[LEVOFLOXACIN HYDROCHLORIDE]", "half-life": 7.3}, {"smiles": "O=C1Nc2ccc(Cl)cc2C(c2ccccc2Cl)=NC1O", "note": "(stereo not given) [LORAZEPAM]", "half-life": 12.4}, {"smiles": "COc1c(C)c2c(c(O)c1C/C=C(\\C)CCC(=O)O)C(=O)OC2", "note": "[MYCOPHENOLIC ACID]", "half-life": 16.6}]}, {"test_system": "not listed separately", "experiment": "Drug metabolism in human assessed as glucuronide concentration in urine", "conditions": "not given", "values": [{"smiles": "C[C@H]1COc2c(N3CCN(C)CC3)c(F)cc3c(=O)c(C(=O)O)cn1c23.Cl", "note": "[LEVOFLOXACIN HYDROCHLORIDE]", "Fm": "< 0.015"}, {"smiles": "O=C1Nc2ccc(Cl)cc2C(c2ccccc2Cl)=NC1O", "note": "(stereo not given) [LORAZEPAM]", "Fm": 0.81}, {"smiles": "COc1c(C)c2c(c(O)c1C/C=C(\\C)CCC(=O)O)C(=O)OC2", "note": "[MYCOPHENOLIC ACID]", "Fm": 0.9}]}, {"test_system": "not listed separately", "experiment": "Drug metabolism in bile duct-cannulated cynomolgus monkey assessed as glucuronide concentration in bile and urine at 0.2 mg/kg, iv up to 24 hrs by LC/MS/MS analysis", "conditions": "in vivo", "values": [{"smiles": "C[C@H]1COc2c(N3CCN(C)CC3)c(F)cc3c(=O)c(C(=O)O)cn1c23.Cl", "note": "[LEVOFLOXACIN HYDROCHLORIDE]", "Fm": 0.82}, {"smiles": "O=C1Nc2ccc(Cl)cc2C(c2ccccc2Cl)=NC1O", "note": "(stereo not given) [LORAZEPAM]", "Fm": 0.53}, {"smiles": "COc1c(C)c2c(c(O)c1C/C=C(\\C)CCC(=O)O)C(=O)OC2", "note": "[MYCOPHENOLIC ACID]", "Fm": 0.54}]}]}
